Measurements published in patent publication US20250121090A1, “Antibody-Drug Conjugates and Methods of Use Thereof” (priority 2021, published 2025).

How the values were obtained:
L-82 xenograft = L-82 xenograft with CD30 ADCs; type: in vivo, NOD/SCID mice; conditions: single i.v. dose 3 mg/kg (equal dosing)
Method: Female NOD/SCID mice were used (8 mice/group) for the study. Animals were inoculated subcutaneously in the flank with 10 million cells in 50% PBS/50% Matrigel. When tumors reached an average volume of 100 mm^3, all animals were treated (Day 0) with a single 10 mg/kg intravenous dose of human IgG. Then, on Day 1, animals were treated with vehicle alone, with unconjugated antibody (3 mg/kg), or with an ADC at 1.5 or 3 mg/kg. The animals were monitored twice weekly for body weight and tumor size. Animals were euthanized when tumors reached 2000 mm^3. ADCs were highly efficacious in this study.

Karpas 299 xenograft = Karpas 299 xenograft study with anti-CD30 ADCs; conditions: single i.v. dose 3 mg/kg (equal dosing)
Granta 519 xenograft = experiment: First Granta xenograft study; type: in vivo; conditions: polatuzumab ADCs, single dose on Day 7, equal payload dosing levels
From the text: First Granta Xenograft Study Results: Polatuzumab ADCs carrying MMAE conjugated through five different linker types, including vedotin and CT aldehyde-tagged HIPS conjugates were compared for efficacy at equal payload dosing levels in a Granta 519 xenograft study.

Male Sprague-Dawley rats = experiment: Multi-dose non-GLP rat toxicology study #1; type: in vivo; conditions: polatuzumab ADCs, DAR ~4, i.v. weekly for 4 doses (days 1, 8, 15, 22), equal payload/equal antibody dosing

Substance	complete responses (L-82 xenograft)	complete responses (Karpas 299 xenograft)	efficacy (tumor growth inhibition) (Granta 519 xenograft)	tolerability (white and red blood cell parameters) (Male Sprague-Dawley rats)
Adcetris: anti-CD30 ADC used as comparator	8 complete responses out of 8 mice/group	6/6		
polatuzumab vedotin			longest tumor growth inhibition	marked myelosuppression
